Values quoted from earlier work in patent publication US20160300010A1, “METHOD AND SYSTEM FOR PREDICTING SELECTIVE CANCER DRUG TARGETS” (RAMOT AT TEL-AVIV UNIVERSITY LTD., priority 2011, published 2016).

Tested on: human cancer cells
Conditions: previously shown

NC(Cn1ccc(=O)c(O)c1)C(=O)O (stereo not shown) [Mimosine]
effect on proliferation of human cancer cells: inhibit proliferation of human cancer cells
